Measured values as given in patent publication US8269013B2, “Substituted pyrazole inhibitors of c-Met protein kinase” (Vertex Pharmaceuticals Incorporated, priority 2009, dated 2012).

Legend:
[1] = test system: c-Met in Snu5-AP1-Luc-Pest cells; test: Inhibition of c-Met activity in Snu5 gastric carcinoma cells (Snu5-AP1-Luc-Pest luciferase reporter); format: cell-based, human; details: Steady-Glo luminescence, 4-parameter fit
Description: Compounds of formula I were also screened for their ability to inhibit the Luciferase-induced signal in an engineered Snu5 cell line. […] The constitutively active c-Met activates cellular pathways (principally MAP kinase), resulting in AP-1-induced transcription of luciferase-PEST and translation into the final product, the activity of which is quantifiable as a chemiluminescent readout upon the addition of luciferin (Steady-Glo from Promega.). Residual luminescence is strongly correlated to the inhibition of c-Met. A stable cell line was obtained by selecting the new cell line (Snu5-AP1-Luc-Pest) with puromycin. The cells were grown in complete media [Iscove's media (Invitrogen) containing 10% fetal bovine serum (FBS, Hyclone) and penicillin/gentamycin (Invitrogen)]. Compounds of the invention were dissolved in DMSO to make 10 mM initial stock solutions. Serial dilutions in DMSO were then made and transferred to complete medium to make a 10× solution. The Snu5-AP1-Luc-Pest cells were counted and diluted to 200,000-cells/mL solution. The cells (90 μL) were added to each well in a 96-well black with clear bottom plate (Costar). Then 10 μL of the 10× compound solution was added to the cells in triplicate. The plates were incubated in a 37° C./5% CO2 incubator. After 6 hours, 50 μL of the Steady-Glo reagent (Promega) was added to each well and placed on a plate shaker for 5 minutes to ensure that the cells were completely lysed.

[2] = target: c-Met (Homo sapiens, UniProt P08581); test: c-Met kinase inhibition assay (radiometric, 33P-ATP, polyE4Y); format: biochemical; details: 0.5 nM c-Met, 35 μM ATP, 0.5 mg/mL polyE4Y, 20 min; competitive tight-binding fit
Sequence of c-Met (P08581 25-1390): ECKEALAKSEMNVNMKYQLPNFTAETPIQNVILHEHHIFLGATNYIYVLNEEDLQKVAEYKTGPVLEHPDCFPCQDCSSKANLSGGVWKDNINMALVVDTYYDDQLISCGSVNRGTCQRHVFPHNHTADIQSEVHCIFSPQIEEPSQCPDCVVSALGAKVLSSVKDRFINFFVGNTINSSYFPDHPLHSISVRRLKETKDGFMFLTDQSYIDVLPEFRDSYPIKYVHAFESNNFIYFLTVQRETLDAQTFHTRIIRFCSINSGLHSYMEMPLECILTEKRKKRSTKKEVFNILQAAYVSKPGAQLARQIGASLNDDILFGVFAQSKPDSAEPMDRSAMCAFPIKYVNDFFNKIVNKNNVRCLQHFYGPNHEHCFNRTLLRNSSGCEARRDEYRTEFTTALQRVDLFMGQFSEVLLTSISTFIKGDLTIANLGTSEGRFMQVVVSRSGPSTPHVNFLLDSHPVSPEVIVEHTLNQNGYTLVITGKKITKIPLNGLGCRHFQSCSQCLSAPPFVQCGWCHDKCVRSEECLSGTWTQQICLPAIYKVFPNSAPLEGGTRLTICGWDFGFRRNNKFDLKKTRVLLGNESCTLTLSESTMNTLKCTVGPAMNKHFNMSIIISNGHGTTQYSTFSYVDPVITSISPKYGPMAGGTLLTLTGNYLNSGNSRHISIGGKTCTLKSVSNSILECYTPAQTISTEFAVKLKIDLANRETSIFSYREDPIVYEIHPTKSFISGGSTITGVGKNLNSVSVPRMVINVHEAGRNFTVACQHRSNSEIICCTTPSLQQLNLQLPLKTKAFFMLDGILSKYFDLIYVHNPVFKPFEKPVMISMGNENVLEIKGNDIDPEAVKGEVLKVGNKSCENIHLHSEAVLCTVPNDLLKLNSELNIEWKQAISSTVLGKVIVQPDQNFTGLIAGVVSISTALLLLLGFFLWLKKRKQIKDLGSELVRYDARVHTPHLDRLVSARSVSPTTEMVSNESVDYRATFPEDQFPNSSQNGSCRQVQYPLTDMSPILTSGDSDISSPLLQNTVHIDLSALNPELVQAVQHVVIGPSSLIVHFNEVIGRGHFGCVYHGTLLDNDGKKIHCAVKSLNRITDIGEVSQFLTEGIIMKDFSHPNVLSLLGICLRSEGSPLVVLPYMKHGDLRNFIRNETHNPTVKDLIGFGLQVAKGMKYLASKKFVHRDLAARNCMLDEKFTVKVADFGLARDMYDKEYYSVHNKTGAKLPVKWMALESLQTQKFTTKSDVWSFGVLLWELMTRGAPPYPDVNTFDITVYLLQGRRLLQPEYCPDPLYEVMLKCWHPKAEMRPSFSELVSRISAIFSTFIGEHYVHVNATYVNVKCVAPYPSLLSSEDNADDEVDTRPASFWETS
Experimental: The compounds of the invention were screened for their ability to inhibit c-Met kinase using a standard radiometric assay. Briefly, in this kinase assay the transfer of the terminal ^33P-phosphate in ^33P-ATP to substrate polyE4Y is interrogated. […] Accordingly, compounds of the invention were dissolved in DMSO to make 10 mM initial stock solutions. Serial dilutions in DMSO were then made to obtain the final solutions for the assay. A 1.5 μL aliquot of DMSO or inhibitor in DMSO was added to each well, followed by the addition of ^33P-ATP, and finally the addition of c-Met and polyE4Y (obtained from Sigma). After 20 min, the reaction was quenched with 50 μL of 30% trichloroacetic acid (TCA) containing 4 mM ATP. The reaction mixture was transferred to the 0.66 mm GF filter plates (Corning) and washed three times with 5% TCA. Following the addition of 50 μL of Ultimate Gold™ high efficiency scintillant (Packard Bioscience), the samples were counted in a Packard TopCount NXT Microplate Scintillation and Luminescence Counter (Packard BioScience). The Ki values, shown in Table 2, were calculated using Microsoft Excel Solver macros to fit the data to the kinetic model for competitive tight-binding inhibition.

Row | SMILES | IC50 ([1]; 6 hours) [nM] | Ki [2] [nM] | IC50 ([1]; Homo sapiens, SNU-5, 6 hours) [nM]
1 | Cc1nn(C)cc1-c1nn2c(Cc3ccc4ncccc4c3)nnc2s1 [Compound 1] | 2 |  | 
2 | CCc1nn(C)cc1-c1nn2c(Cc3ccc4ncccc4c3)nnc2s1 [Compound 2] | 4 |  | 
3 | Cn1cc(-c2nn3c(Cc4ccc5ncccc5c4)nnc3s2)c(C(F)(F)F)n1 [Compound 3] | 2 |  | 
4 | CC(C)c1nn(C)cc1-c1nn2c(Cc3ccc4ncccc4c3)nnc2s1 [Compound 4] | 3 |  | 
5 | Cc1nn(C)cc1-c1nn2c([C@H](C)c3ccc4ncccc4c3)nnc2s1 [Compound 5] |  | 24 | 2.5
6 | C[C@H](c1ccc2ncccc2c1)c1nnc2sc(-c3cn(C)nc3C3CC3)nn12 [Compound 8] |  | 24 | 3
7 | Cc1nn(C)cc1-c1nn2c(C(C)(C)c3ccc4ncccc4c3)nnc2s1 [Compound 13] |  | 360 | 250
8 | Cc1nn(C)cc1-c1nn2c([C@H](C)c3c(F)cc4ncccc4c3F)nnc2s1 [Compound 19] |  | 22 | 5
9 | Cn1cc(-c2nn3c(Cc4ccc5ncccc5c4)nnc3s2)cn1 [reference compound] |  |  | 85
10 | C[C@@H](c1ccc2ncccc2c1)c1nnc2sc(-c3cnn(C)c3)nn12 [reference compound] |  | 24 | 15
11 | C[C@H](c1ccc2ncccc2c1)c1nnc2sc(-c3cnn(C)c3)nn12 [reference compound] |  | 243 | 90
12 | Cn1cc(-c2nn3c(C(C)(C)c4ccc5ncccc5c4)nnc3s2)cn1 [reference compound] |  | 3400 | > 1000
13 | C[C@H](c1c(F)cc2ncccc2c1F)c1nnc2sc(-c3cnn(C)c3)nn12 [reference compound] |  | 70 | 60
14 | Cn1cc(-c2nn3c(C(F)(F)c4ccc5ncccc5c4)nnc3s2)cn1 [reference compound] |  | 36 | 14

Further lines, results first:

Row | IC50 ([1]; 6 hours) [nM] | Ki [2] [nM] | IC50 ([1]; Homo sapiens, SNU-5, 6 hours) [nM] | SMILES
15 |  | 7 | 2 | C[C@H](c1ccc2ncccc2c1)c1nnc2sc(-c3cn(C)nc3C(F)(F)F)nn12 [Compound 6]
16 |  | 10 | 6 | CCc1nn(C)cc1-c1nn2c([C@H](C)c3ccc4ncccc4c3)nnc2s1 [Compound 7]
17 |  | 15 | 3 | Cc1nn(C)cc1-c1nn2c([C@@H](C)c3ccc4ncccc4c3)nnc2s1 [Compound 9]
18 |  | 5 | 6.2 | CCc1nn(C)cc1-c1nn2c([C@@H](C)c3ccc4ncccc4c3)nnc2s1 [Compound 10]
19 |  | 3 | 2 | C[C@@H](c1ccc2ncccc2c1)c1nnc2sc(-c3cn(C)nc3C(F)(F)F)nn12 [Compound 11]
20 |  | 7 | 7 | C[C@@H](c1ccc2ncccc2c1)c1nnc2sc(-c3cn(C)nc3C3CC3)nn12 [Compound 12]
21 |  | 7 | 2 | Cc1nn(C)cc1-c1nn2c(Cc3c(F)cc4ncccc4c3F)nnc2s1 [Compound 14]
22 |  | 2.5 | 2 | CCc1nn(C)cc1-c1nn2c(Cc3c(F)cc4ncccc4c3F)nnc2s1 [Compound 15]
23 |  | 2.4 | 3 | CC(C)c1nn(C)cc1-c1nn2c(Cc3c(F)cc4ncccc4c3F)nnc2s1 [Compound 16]
24 |  | 2 | 2.5 | Cn1cc(-c2nn3c(Cc4c(F)cc5ncccc5c4F)nnc3s2)c(C(F)(F)F)n1 [Compound 17]
25 |  | 2 | 0.5 | Cc1nn(C)cc1-c1nn2c([C@@H](C)c3c(F)cc4ncccc4c3F)nnc2s1 [Compound 18]
26 |  | 14 | 4 | Cc1nn(C)cc1-c1nn2c(C(F)(F)c3ccc4ncccc4c3)nnc2s1 [Compound 20]
27 |  | 4 | 6 | CC(C)c1nn(C)cc1-c1nn2c(C(F)(F)c3ccc4ncccc4c3)nnc2s1 [Compound 21]
28 |  | 16 | 12 | Cn1cc(-c2nn3c(Cc4c(F)cc5ncccc5c4F)nnc3s2)cn1 [reference compound]
29 |  | 5 | 6 | C[C@@H](c1c(F)cc2ncccc2c1F)c1nnc2sc(-c3cnn(C)c3)nn12 [reference compound]
